Data as given in US20200093130A1, “APPLICATION OF TETRAHYDROBENZAZOLE IN PREPARATION OF AGRICULTURAL FUNGICIDE OR FUNGICIDE COMPOSITION AND PREPARATION METHOD THEREOF” (JIANGSU FREY AGROCHEMICALS CO., LTD, priority 2017, published 2020).
Like-named read-outs stand apart in the source and are kept apart here.

Legend:
Botrytis cinerea [1] = experiment: In vitro fungicidal activity, growth rate method (Cucumber gray mold); format: cell-based; design: key: “—” means the activity is not obvious
[2] = test system: Sinoe ampelina (de Bary) Shear; experiment: In vitro fungicidal activity, growth rate method (Grape anthracnose); format: cell-based; design: key: “—” means the activity is not obvious
Fusarium moniliforme = experiment: In vitro fungicidal activity, growth rate method (Rice bakanae disease); format: cell-based; design: key: “—” means the activity is not obvious
Botryosphaeria = experiment: In vitro fungicidal activity, growth rate method (Apple ring spot); format: cell-based; design: key: “—” means the activity is not obvious
[3] = test system: Helminthosporium carposaprum; experiment: In vitro fungicidal activity, growth rate method (Corn spot); format: cell-based
Phytophthora = format: cell-based; conditions: Potato late blight
Botrytis cinerea [4] = experiment: In vitro fungicidal activity, growth rate method (Strawberry grey mold); format: cell-based; design: key: “—” means the activity is not obvious
Altemaria solani = experiment: In vitro fungicidal activity, growth rate method (Tomato early blight); format: cell-based
[5] = In vitro fungicidal activity, growth rate method (Colletotrichum capsici); format: cell-based, Acanthopteris fungi; conditions: plant disease Colletotrichum capsici
Erysiphe = experiment: In vitro fungicidal activity, growth rate method (Strawberry powdery mildew); format: cell-based
Mycosphaerella musicola = experiment: In vitro fungicidal activity, growth rate method (Banana leaf spot disease); format: cell-based
Alternaria kikuchiana = experiment: In vitro fungicidal activity, growth rate method (Pear black spot); format: cell-based
[6] = test system: Fusarium oxysporum f. sp cucumerinum; experiment: In vitro fungicidal activity, growth rate method (Cucumber fusarium wilt); format: cell-based; design: key: “—” means the activity is not obvious
Cercospora arachidicola = experiment: In vitro fungicidal activity, growth rate method (Peanut brown spot); format: cell-based; design: key: “—” means the activity is not obvious
[7] = format: cell-based, Acinomycete spiculata; conditions: Cucumber anthrax
Pyricularia grisea = format: cell-based; conditions: Rice blast
Rhizoctonia solani = experiment: In vitro fungicidal activity, growth rate method (Rice sheath blight); format: cell-based
Sclerotinia sclerotiorum [8] = experiment: In vitro fungicidal activity, growth rate method (Chili sclerotium); format: cell-based
[9] = test system: Sphaerotheca fuliginea (Schlecht) Poll.; experiment: In vitro fungicidal activity, growth rate method (Cucumber powdery mildew); format: cell-based
Sclerotinia sclerotiorum [10] = experiment: In vitro fungicidal activity, growth rate method (Cucumber sclerotinia rot); format: cell-based
[11] = test system: Alternaria alternata (Fr.) Keissl; experiment: In vitro fungicidal activity, growth rate method (Apple altermaria leaf spot); format: cell-based

CC1COC(Cn2cnnc2)(c2ccc(Oc3ccc(Cl)cc3)cc2Cl)O1 (stereo not drawn) [Formula I, 4-((-(2-chloro-4-(4-chlorophenoxy)phenyl)-4-methyl-1,3-dioxapentan-2-yl)methyl)-4H-1,2,4-triazole]
Fungicidal activity (inhibition ratio %) (Botrytis cinerea [1]; 1 μg/mL): — | Fungicidal activity (inhibition ratio %) (Botrytis cinerea [1]; 5 μg/mL): — | Fungicidal activity (inhibition ratio %) (Botrytis cinerea [1]; 10 μg/mL): 5.10% | Fungicidal activity (inhibition ratio %) (Botrytis cinerea [1]; 15 μg/mL): 9.98% | Fungicidal activity (inhibition ratio %) (Botrytis cinerea [1]; 20 μg/mL): 21.26% | Fungicidal activity (inhibition ratio %) ([2]; 1 μg/mL): — | Fungicidal activity (inhibition ratio %) ([2]; 5 μg/mL): 25.12% | Fungicidal activity (inhibition ratio %) ([2]; 10 μg/mL): 42.04% | Fungicidal activity (inhibition ratio %) ([2]; 15 μg/mL): 52.93% | Fungicidal activity (inhibition ratio %) ([2]; 20 μg/mL): 65.18% | Fungicidal activity (inhibition ratio %) (Fusarium moniliforme; 1 μg/mL): — | Fungicidal activity (inhibition ratio %) (Fusarium moniliforme; 5 μg/mL): 22.26% | Fungicidal activity (inhibition ratio %) (Fusarium moniliforme; 10 μg/mL): 36.71% | Fungicidal activity (inhibition ratio %) (Fusarium moniliforme; 15 μg/mL): 45.62% | Fungicidal activity (inhibition ratio %) (Fusarium moniliforme; 20 μg/mL): 61.79% | Fungicidal activity (inhibition ratio %) (Botryosphaeria; 1 μg/mL): — | Fungicidal activity (inhibition ratio %) (Botryosphaeria; 5 μg/mL): 41.28% | Fungicidal activity (inhibition ratio %) (Botryosphaeria; 10 μg/mL): 53.56% | Fungicidal activity (inhibition ratio %) (Botryosphaeria; 15 μg/mL): 68.76% | Fungicidal activity (inhibition ratio %) (Botryosphaeria; 20 μg/mL): 73.46% | Fungicidal activity (inhibition ratio %) ([3]; 1 μg/mL): 8.92% | Fungicidal activity (inhibition ratio %) ([3]; 5 μg/mL): 22.44% | Fungicidal activity (inhibition ratio %) ([3]; 10 μg/mL): 33.45% | Fungicidal activity (inhibition ratio %) ([3]; 15 μg/mL): 44.46% | Fungicidal activity (inhibition ratio %) ([3]; 20 μg/mL): 53.22% | Fungicidal activity (inhibition ratio %) (Phytophthora; 1 μg/mL): 27.03% | Fungicidal activity (inhibition ratio %) (Phytophthora; 5 μg/mL): 31.96% | Fungicidal activity (inhibition ratio %) (Phytophthora; 10 μg/mL): 43.44% | Fungicidal activity (inhibition ratio %) (Phytophthora; 15 μg/mL): 65.08% | Fungicidal activity (inhibition ratio %) (Phytophthora; 20 μg/mL): 73.63% | Fungicidal activity (inhibition ratio %) (Botrytis cinerea [4]; 1 μg/mL): — | Fungicidal activity (inhibition ratio %) (Botrytis cinerea [4]; 5 μg/mL): — | Fungicidal activity (inhibition ratio %) (Botrytis cinerea [4]; 10 μg/mL): 7.12% | Fungicidal activity (inhibition ratio %) (Botrytis cinerea [4]; 15 μg/mL): 13.46% | Fungicidal activity (inhibition ratio %) (Botrytis cinerea [4]; 20 μg/mL): 29.22% | Fungicidal activity (inhibition ratio %) (Altemaria solani; 1 μg/mL): 13.20% | Fungicidal activity (inhibition ratio %) (Altemaria solani; 5 μg/mL): 52.88% | Fungicidal activity (inhibition ratio %) (Altemaria solani; 10 μg/mL): 67.29% | Fungicidal activity (inhibition ratio %) (Altemaria solani; 15 μg/mL): 77.88% | Fungicidal activity (inhibition ratio %) (Altemaria solani; 20 μg/mL): 85.86% | Fungicidal activity (inhibition ratio %) ([5]; 1 μg/mL): 28.70% | Fungicidal activity (inhibition ratio %) ([5]; 5 μg/mL): 47.29% | Fungicidal activity (inhibition ratio %) ([5]; 10 μg/mL): 53.59% | Fungicidal activity (inhibition ratio %) ([5]; 15 μg/mL): 68.32% | Fungicidal activity (inhibition ratio %) ([5]; 20 μg/mL): 78.96% | Fungicidal activity (inhibition ratio %) (Erysiphe; 1 μg/mL): 33.24% | Fungicidal activity (inhibition ratio %) (Erysiphe; 5 μg/mL): 54.62% | Fungicidal activity (inhibition ratio %) (Erysiphe; 10 μg/mL): 67.26% | Fungicidal activity (inhibition ratio %) (Erysiphe; 15 μg/mL): 76.09% | Fungicidal activity (inhibition ratio %) (Erysiphe; 20 μg/mL): 79.02% | Fungicidal activity (inhibition ratio %) (Mycosphaerella musicola; 1 μg/mL): 25.26% | Fungicidal activity (inhibition ratio %) (Mycosphaerella musicola; 5 μg/mL): 31.30% | Fungicidal activity (inhibition ratio %) (Mycosphaerella musicola; 10 μg/mL): 43.35% | Fungicidal activity (inhibition ratio %) (Mycosphaerella musicola; 15 μg/mL): 52.11% | Fungicidal activity (inhibition ratio %) (Mycosphaerella musicola; 20 μg/mL): 66.76% | Fungicidal activity (inhibition ratio %) (Alternaria kikuchiana; 1 μg/mL): 29.98% | Fungicidal activity (inhibition ratio %) (Alternaria kikuchiana; 5 μg/mL): 35.76% | Fungicidal activity (inhibition ratio %) (Alternaria kikuchiana; 10 μg/mL): 46.61% | Fungicidal activity (inhibition ratio %) (Alternaria kikuchiana; 15 μg/mL): 59.78% | Fungicidal activity (inhibition ratio %) (Alternaria kikuchiana; 20 μg/mL): 67.44% | Fungicidal activity (inhibition ratio %) ([6]; 1 μg/mL): — | Fungicidal activity (inhibition ratio %) ([6]; 5 μg/mL): — | Fungicidal activity (inhibition ratio %) ([6]; 10 μg/mL): 18.32% | Fungicidal activity (inhibition ratio %) ([6]; 15 μg/mL): 31.77% | Fungicidal activity (inhibition ratio %) ([6]; 20 μg/mL): 48.18% | Fungicidal activity (inhibition ratio %) (Cercospora arachidicola; 1 μg/mL): — | Fungicidal activity (inhibition ratio %) (Cercospora arachidicola; 5 μg/mL): 19.71% | Fungicidal activity (inhibition ratio %) (Cercospora arachidicola; 10 μg/mL): 31.25% | Fungicidal activity (inhibition ratio %) (Cercospora arachidicola; 15 μg/mL): 39.48% | Fungicidal activity (inhibition ratio %) (Cercospora arachidicola; 20 μg/mL): 56.68% | Fungicidal activity (inhibition ratio %) ([7]; 1 μg/mL): 37.85% | Fungicidal activity (inhibition ratio %) ([7]; 5 μg/mL): 41.18% | Fungicidal activity (inhibition ratio %) ([7]; 10 μg/mL): 53.51% | Fungicidal activity (inhibition ratio %) ([7]; 15 μg/mL): 58.17% | Fungicidal activity (inhibition ratio %) ([7]; 20 μg/mL): 65.73% | Fungicidal activity (inhibition ratio %) (Pyricularia grisea; 1 μg/mL): 11.94% | Fungicidal activity (inhibition ratio %) (Pyricularia grisea; 5 μg/mL): 25.37% | Fungicidal activity (inhibition ratio %) (Pyricularia grisea; 10 μg/mL): 44.73% | Fungicidal activity (inhibition ratio %) (Pyricularia grisea; 15 μg/mL): 58.23% | Fungicidal activity (inhibition ratio %) (Pyricularia grisea; 20 μg/mL): 67.59% | Fungicidal activity (inhibition ratio %) (Rhizoctonia solani; 1 μg/mL): 37.80% | Fungicidal activity (inhibition ratio %) (Rhizoctonia solani; 5 μg/mL): 52.79% | Fungicidal activity (inhibition ratio %) (Rhizoctonia solani; 10 μg/mL): 68.48% | Fungicidal activity (inhibition ratio %) (Rhizoctonia solani; 15 μg/mL): 72.82% | Fungicidal activity (inhibition ratio %) (Rhizoctonia solani; 20 μg/mL): 82.56% | Fungicidal activity (inhibition ratio %) (Sclerotinia sclerotiorum [8]; 1 μg/mL): 12.81% | Fungicidal activity (inhibition ratio %) (Sclerotinia sclerotiorum [8]; 5 μg/mL): 17.96% | Fungicidal activity (inhibition ratio %) (Sclerotinia sclerotiorum [8]; 10 μg/mL): 25.35% | Fungicidal activity (inhibition ratio %) (Sclerotinia sclerotiorum [8]; 15 μg/mL): 39.34% | Fungicidal activity (inhibition ratio %) (Sclerotinia sclerotiorum [8]; 20 μg/mL): 55.18% | Fungicidal activity (inhibition ratio %) ([9]; 1 μg/mL): 38.70% | Fungicidal activity (inhibition ratio %) ([9]; 5 μg/mL): 57.29% | Fungicidal activity (inhibition ratio %) ([9]; 10 μg/mL): 63.59% | Fungicidal activity (inhibition ratio %) ([9]; 15 μg/mL): 78.32% | Fungicidal activity (inhibition ratio %) ([9]; 20 μg/mL): 88.96% | Fungicidal activity (inhibition ratio %) (Sclerotinia sclerotiorum [10]; 1 μg/mL): 12.55% | Fungicidal activity (inhibition ratio %) (Sclerotinia sclerotiorum [10]; 5 μg/mL): 34.23% | Fungicidal activity (inhibition ratio %) (Sclerotinia sclerotiorum [10]; 10 μg/mL): 51.21% | Fungicidal activity (inhibition ratio %) (Sclerotinia sclerotiorum [10]; 15 μg/mL): 64.29% | Fungicidal activity (inhibition ratio %) (Sclerotinia sclerotiorum [10]; 20 μg/mL): 71.84% | Fungicidal activity (inhibition ratio %) ([11]; 1 μg/mL): 26.94% | Fungicidal activity (inhibition ratio %) ([11]; 5 μg/mL): 34.48% | Fungicidal activity (inhibition ratio %) ([11]; 10 μg/mL): 52.31% | Fungicidal activity (inhibition ratio %) ([11]; 15 μg/mL): 66.71% | Fungicidal activity (inhibition ratio %) ([11]; 20 μg/mL): 74.65%
